“Also recorded” adds a separate entry of the source. The source made the active and inactive calls. How the calls were made is not given here.
Tested on: CCRIS mutagenicity, Ames/micronucleus/aberration tests
Experiment: CCRIS mutagenicity studies
[1] = Test System: AMES SALMONELLA TYPHIMURIUM, Strain/Indicator: TA98, Metabolic Activation: NONE, Method: PREINCUBATION
[2] = Test System: AMES SALMONELLA TYPHIMURIUM, Strain/Indicator: TA100, Metabolic Activation: NONE, Method: PREINCUBATION
[3] = Test System: AMES SALMONELLA TYPHIMURIUM, Strain/Indicator: TA1535, Metabolic Activation: NONE, Method: PREINCUBATION
[4] = Test System: AMES SALMONELLA TYPHIMURIUM, Strain/Indicator: TA1537, Metabolic Activation: NONE, Method: PREINCUBATION
[5] = Test System: AMES SALMONELLA TYPHIMURIUM, Strain/Indicator: TA1535, Metabolic Activation: NONE, Method: STANDARD PLATE

Question: Which mutagenic call (End Point: In vitro chromosomal aberrations, Test System: Chinese hamster lung (CHL/IU) cells, Metabolic Activation: None) does the source give for `COc1ccc(C)cc1N` here?
Answer: active; positive (structural changes). toxicity at 1.2 mg/ml; also recorded: active; positive (structural changes). toxicity at 0.60 mg/ml; also recorded: active; positive (structural changes). toxicity at 0.8 mg/ml; no dose response observed

Question: What about the mutagenic call (End Point: In vitro chromosomal aberrations, Test System: Chinese hamster lung (CHL/IU) cells, Metabolic Activation: Rat, Liver, S9, Phenobarbital and 5,6-benzoflavone) of the same molecule?
Answer: active; positive (structural changes and ploidy). toxicity at 1.2 mg/ml; no dose respons

Question: And the mutagenic call (End Point: In vivo micronucleus, Test System: Polychromatic erythrocytes, Species: Mouse, Strain/Sex: C57BL/6TacBr-[KO]p53[TSG-p53], Route: Oral)?
Answer: active; positive at all days

Question: And the mutagenic call (Test System: AMES SALMONELLA TYPHIMURIUM, Strain/Indicator: TA98, Metabolic Activation: HAMSTER, LIVER, S-9, AROCLOR 1254 (30%), Method: PREINCUBATION)?
Answer: active; positive

Question: And the mutagenic call (Test System: AMES SALMONELLA TYPHIMURIUM, Strain/Indicator: TA98, Metabolic Activation: HAMSTER, LIVER, S-9, PHENOBARBITAL AND BETA-NAPHTHOFLAVONE, Method: PREINCUBATION)?
Answer: active; positive

Question: What about the mutagenic call [1] of the same molecule?
Answer: inactive; negative

Question: And the mutagenic call (Test System: AMES SALMONELLA TYPHIMURIUM, Strain/Indicator: TA98, Metabolic Activation: RAT, LIVER, S-9, AROCLOR 1254 (30%), Method: PREINCUBATION)?
Answer: active; positive

Question: And the mutagenic call (Test System: AMES SALMONELLA TYPHIMURIUM, Strain/Indicator: TA100, Metabolic Activation: HAMSTER, LIVER, S-9, AROCLOR 1254 (30%), Method: PREINCUBATION)?
Answer: active; positive

Question: What about the mutagenic call (Test System: AMES SALMONELLA TYPHIMURIUM, Strain/Indicator: TA100, Metabolic Activation: HAMSTER, LIVER, S-9, PHENOBARBITAL AND BETA-NAPHTHOFLAVONE, Method: PREINCUBATION) of the same molecule?
Answer: active; positive

Question: What about the mutagenic call [2] of the same molecule?
Answer: inactive; negative

Question: And the mutagenic call (Test System: AMES SALMONELLA TYPHIMURIUM, Strain/Indicator: TA100, Metabolic Activation: RAT, LIVER, S-9, AROCLOR 1254 (30%), Method: PREINCUBATION)?
Answer: active; positive

Question: And the mutagenic call (Test System: AMES SALMONELLA TYPHIMURIUM, Strain/Indicator: TA1535, Metabolic Activation: HAMSTER, LIVER, S-9, PHENOBARBITAL AND BETA-NAPHTHOFLAVONE, Method: PREINCUBATION)?
Answer: inactive; negative

Question: And the mutagenic call [3]?
Answer: inactive; negative

Question: What about the mutagenic call (Test System: AMES SALMONELLA TYPHIMURIUM, Strain/Indicator: TA1537, Metabolic Activation: HAMSTER, LIVER, S-9, PHENOBARBITAL AND BETA-NAPHTHOFLAVONE, Method: PREINCUBATION) of the same molecule?
Answer: active; positive

Question: And the mutagenic call [4]?
Answer: inactive; negative

Question: And the mutagenic call (Test System: E. COLI, Strain/Indicator: WP2UVRA, Metabolic Activation: HAMSTER, LIVER, S-9, PHENOBARBITAL AND BETA-NAPHTHOFLAVONE, Method: PREINCUBATION)?
Answer: inactive; negative

Question: And the mutagenic call (Test System: E. COLI, Strain/Indicator: WP2 UVRA, Metabolic Activation: HAMSTER, LIVER, S-9, Method: STANDARD PLATE)?
Answer: inactive; negative

Question: And the mutagenic call (Test System: E. COLI, Strain/Indicator: WP2 UVRA, Metabolic Activation: MOUSE, LIVER, S-9, AROCLOR 1254, Method: STANDARD PLATE)?
Answer: inactive; negative

Question: What about the mutagenic call (Test System: E. COLI, Strain/Indicator: WP2UVRA, Metabolic Activation: NONE, Method: PREINCUBATION) of the same molecule?
Answer: inactive; negative

Question: And the mutagenic call (Test System: E. COLI, Strain/Indicator: WP2 UVRA, Metabolic Activation: NONE, Method: STANDARD PLATE)?
Answer: inactive; negative

Question: What about the mutagenic call (Test System: E. COLI, Strain/Indicator: WP2 UVRA, Metabolic Activation: RAT, LIVER, S-9, AROCLOR 1254, Method: STANDARD PLATE) of the same molecule?
Answer: inactive; negative

Question: And the mutagenic call (Test System: E. COLI, Strain/Indicator: WP2 UVRA, Metabolic Activation: RAT, LIVER, S-9, Method: STANDARD PLATE)?
Answer: inactive; negative

Question: What about the mutagenic call (Test System: UDS RODENT HEPATOCYTES, Strain/Indicator: THY INCORP (NON-S-PHASE), Metabolic Activation: NONE, Method: AUTORADIOGRAPHY) of the same molecule?
Answer: inactive; negative

Question: What does the source list for `C=CC[N+](C)(C)CC=C`?
Answer: mutagenic call [1]: inactive; negative; mutagenic call (Test System: AMES SALMONELLA TYPHIMURIUM, Strain/Indicator: TA98, Metabolic Activation: RAT LIVER S-9, PHENOBARBITAL AND BETA-NAPHTHOFLAVONE, Method: PREINCUBATION): inactive; negative; mutagenic call [2]: inactive; negative; mutagenic call (Test System: AMES SALMONELLA TYPHIMURIUM, Strain/Indicator: TA100, Metabolic Activation: RAT LIVER S-9, PHENOBARBITAL AND BETA-NAPHTHOFLAVONE, Method: PREINCUBATION): inactive; negative; mutagenic call [3]: inactive; negative; mutagenic call (Test System: AMES SALMONELLA TYPHIMURIUM, Strain/Indicator: TA1535, Metabolic Activation: RAT LIVER S-9, PHENOBARBITAL AND BETA-NAPHTHOFLAVONE, Method: PREINCUBATION): inactive; negative; mutagenic call [4]: inactive; negative; mutagenic call (Test System: AMES SALMONELLA TYPHIMURIUM, Strain/Indicator: TA1537, Metabolic Activation: RAT LIVER S-9, PHENOBARBITAL AND BETA-NAPHTHOFLAVONE, Method: PREINCUBATION): inactive; negative; mutagenic call (Test System: E.COLI, Strain/Indicator: WP2UVRA/PKM101, Metabolic Activation: NONE, Method: PREINCUBATION): inactive; negative; mutagenic call (Test System: E.COLI, Strain/Indicator: WP2UVRA/PKM101, Metabolic Activation: RAT LIVER S-9, PHENOBARBITAL AND BETA-NAPHTHOFLAVONE, Method: PREINCUBATION): inactive; negative

Question: For `CC(=O)C(Cl)Cl`, which mutagenic call (Test System: AMES SALMONELLA TYPHIMURIUM, Strain/Indicator: TA98, Metabolic Activation: NONE, Method: STANDARD PLATE) is on record?
Answer: inactive; negative

Question: What about the mutagenic call (Test System: AMES SALMONELLA TYPHIMURIUM, Strain/Indicator: TA98, Metabolic Activation: RAT, LIVER, S-9, AROCLOR 1254, Method: STANDARD PLATE) of the same molecule?
Answer: inactive; negative

Question: What about the mutagenic call (Test System: AMES SALMONELLA TYPHIMURIUM, Strain/Indicator: TA100, Metabolic Activation: NONE, Method: FLUCTUATION TEST) of the same molecule?
Answer: active; positive

Question: And the mutagenic call (Test System: AMES SALMONELLA TYPHIMURIUM, Strain/Indicator: TA100, Metabolic Activation: RAT, LIVER, S-9, AROCLOR 1254, Method: FLUCTUATION TEST)?
Answer: inactive; negative

Question: What about the mutagenic call (Test System: AMES SALMONELLA TYPHIMURIUM, Strain/Indicator: TA100, Metabolic Activation: RAT, LIVER, S-9, AROCLOR 1254, Method: STANDARD PLATE) of the same molecule?
Answer: active; positive

Question: And the mutagenic call [5]?
Answer: active; positive

Question: What about the mutagenic call (Test System: AMES SALMONELLA TYPHIMURIUM, Strain/Indicator: TA1535, Metabolic Activation: RAT, LIVER, S-9, AROCLOR 1254, Method: STANDARD PLATE) of the same molecule?
Answer: active; positive

Question: What about the mutagenic call (Test System: AMES SALMONELLA TYPHIMURIUM, Strain/Indicator: TA1537, Metabolic Activation: NONE, Method: STANDARD PLATE) of the same molecule?
Answer: inactive; negative

Question: What about the mutagenic call (Test System: AMES SALMONELLA TYPHIMURIUM, Strain/Indicator: TA1537, Metabolic Activation: RAT, LIVER, S-9, AROCLOR 1254, Method: STANDARD PLATE) of the same molecule?
Answer: inactive; negative

Question: Which mutagenic call (Test System: AMES SALMONELLA TYPHIMURIUM, Strain/Indicator: TA1535, Metabolic Activation: HAMSTER, LIVER, S-9, AROCLOR 1254, Method: STANDARD PLATE) does the source give for `CN(Cc1ccc(C#N)cc1)N=O` here?
Answer: active; positive

Question: What about the mutagenic call [5] of the same molecule?
Answer: inactive; negative
